Legend:
primary rat hepatocytes [1] = assay: DCA-induced cytotoxicity, LDH release assay; conditions: for inhibition of DCA-induced LDH release: 100 μM bile acid, 50 μM DCA
Protocol: (§1) Primary rat hepatocytes were incubated with 100 μM UDCA, methylated UDCA, or no addition (control) for 12 h. Cells were then exposed to 50 μM DCA for 40 h before processing for cytotoxicity activity, including LDH (top), and adenylate kinase (middle) assays, and cell viability (bottom).
(§2) Briefly, rats were anesthetized with phenobarbital sodium (100 mg/kg body weight) injected into the peritoneal cavity. After administration of heparin (200 units/kg body weight) in the tail vein, the abdomen was opened and the portal vein exposed and cannulated. The liver was then perfused at 37° C. in situ with a calcium-free Hanks' Balanced Salt Solution (HBSS) for 10 min, and then with 0.05% collagenase type IV in calcium-present HBSS for another 10 min.
Hepatocyte suspensions were obtained by passing collagenase-digested livers through 125 μm gauze and washing cells in Complete William's E medium (William's E medium, Sigma-Aldrich Corp., St Louis, Mo., USA) supplemented with 26 mM sodium bicarbonate, 23 mM HEPES, 0.01 units/mL insulin, 2 mM L-glutamine, 10 nM dexamethasone, 100 units/mL penicillin, and 10% heat-inactivated fetal bovine serum (Invitrogen Corp., Carlsbad, Calif., USA). Viable primary rat hepatocytes were enriched by low-speed centrifugation at 200 g for 3 min. Cell viability was determined by trypan blue exclusion and was typically 80-85%. After isolation, hepatocytes were ressuspended in Complete William's E medium and plated on Primaria™ tissue culture dishes (BD Biosciences, San Jose, Calif., USA) at 5×10^4 cells/cm2.
Cells were maintained at 37° C. in a humidified atmosphere of 5% CO2 for 6 h, to allow attachment. […]
General cell death or cytotoxicity was evaluated using the lactate dehydrogenase (LDH) Cytotoxicity Detection KitPLUS (Roche Diagnostics GmbH, Mannheim, Germany), following the manufacturer's instructions. […] Finally, absorbance was measured at 490 nm, with 620 nm as reference, using a Bio-Rad model 680 microplate reader (Bio-Rad Laboratories, Hercules, Calif., USA).

primary rat hepatocytes [2] = assay: Cytotoxicity of the bile acids alone in primary cultures of rat hepatocytes; conditions: bile acid alone
Source text: MTS is bioreduced by cells into a formazan product that is soluble in tissue culture medium. […] The quantity of formazan product as measured by the amount of 490 nm absorbance is directly proportional to the number of living cells in culture.

primary rat hepatocytes [3] = assay: Cell viability with the bile acids alone in primary cultures of rat hepatocytes; assay type: cell-based; conditions: bile acid alone
Protocol: as §2
Hepatocyte suspensions were obtained by passing collagenase-digested livers through 125 μm gauze and washing cells in Complete William's E medium (William's E medium, Sigma-Aldrich Corp., St Louis, Mo., USA) supplemented with 26 mM sodium bicarbonate, 23 mM HEPES, 0.01 units/mL insulin, 2 mM L-glutamine, 10 nM dexamethasone, 100 units/mL penicillin, and 10% heat-inactivated fetal bovine serum (Invitrogen Corp., Carlsbad, Calif., USA). Viable primary rat hepatocytes were enriched by low-speed centrifugation at 200 g for 3 min. Cell viability was determined by trypan blue exclusion and was typically 80-85%. […]
General cell death was also determined using a bioluminescent cytolysis assay, designed to measure the release of adenylate kinase (AK) enzyme from damaged cells (ToxiLight™ BioAssay Kit, Lonza). […] The absorbance of the formazan at 490 nm can be measured directly from 96-well assay plates without additional processing. […]

primary rat hepatocytes [4] = assay: DCA-induced cytotoxicity, adenylate kinase release (ToxiLight Assay); assay type: cell-based; conditions: 100 μM bile acid, cells exposed to 50 μM DCA
Protocol: as §1
(§3) Briefly, rats were anesthetized with phenobarbital sodium (100 mg/kg body weight) injected into the peritoneal cavity. After administration of heparin (200 units/kg body weight) in the tail vein, the abdomen was opened and the portal vein exposed and cannulated. […]
(§4) Hepatocyte suspensions were obtained by passing collagenase-digested livers through 125 μm gauze and washing cells in Complete William's E medium (William's E medium, Sigma-Aldrich Corp., St Louis, Mo., USA) supplemented with 26 mM sodium bicarbonate, 23 mM HEPES, 0.01 units/mL insulin, 2 mM L-glutamine, 10 nM dexamethasone, 100 units/mL penicillin, and 10% heat-inactivated fetal bovine serum (Invitrogen Corp., Carlsbad, Calif., USA). […] Cell viability was determined by trypan blue exclusion and was typically 80-85%. […]
(§5) General cell death was also determined using a bioluminescent cytolysis assay, designed to measure the release of adenylate kinase (AK) enzyme from damaged cells (ToxiLight™ BioAssay Kit, Lonza). […]

primary rat hepatocytes [5] = assay: DCA-induced loss of cell viability (CellTiter-Fluor Cell Viability Assay); assay type: cell-based; conditions: pretreatment with 100 μM bile acid, 50 μM DCA
Protocol: as §1, §3, §4, §5

primary rat hepatocytes [6] = assay: TGF-β1-induced loss of cell viability (MTS activity); assay type: cell-based; conditions: 100 μM for 12 h, then 1 nM TGF-β1 for 36 h
Protocol: FIG. 5. […] Primary rat hepatocytes were pre-incubated with 100 μM methylated UDCA, or no addition (control) for 12 h. Cells were then exposed to 1 nM TGF-β1 for 36 h before processing for MTS activity.

## C[C@H](CCC(=O)O)[C@H]1CC[C@H]2[C@@H]3[C@@H](O)C[C@@H]4C[C@H](O)CC[C@]4(C)[C@H]3CC[C@]12C [UDCA, ursodeoxycholic acid, reference compound]
Primary rat hepatocytes [1]
  inhibition of DCA-induced LDH release: ~70%

## CO[C@H]1C[C@@H]2C[C@H](O)CC[C@]2(C)[C@H]2CC[C@]3(C)[C@@H]([C@H](C)CCC(=O)O)CC[C@H]3[C@H]12 [methylated UDCA, 3α-hydroxy,7β-methoxy-5β-cholan-24-oic acid]
Primary rat hepatocytes [2]; 200 and 400 μM concentrations
  cytotoxicity: an increase in cytotoxicity was evident
Primary rat hepatocytes [2]; concentrations up to 100 μM
  cytotoxicity: remained largely unchanged
Primary rat hepatocytes [3]; from 10 to 100 μM concentrations
  cell viability: tended to increase cell viability
Primary rat hepatocytes [3]; highest bile acid concentrations (200 and 400 μM)
  viability: decreased viability
Primary rat hepatocytes [4]
  protection against DCA-induced adenylate kinase release (ToxiLight Assay): slightly better protection
Primary rat hepatocytes [5]
  rescue of cell viability in cells exposed to DCA: effective at rescuing cell viability
Primary rat hepatocytes [6]
  inhibition of TGF-β1-induced reduction in MTT metabolism / loss of cell viability: effective at inhibiting TGF-β1-induced reduction in MTT metabolism
Primary rat hepatocytes [6]; listed as Methylated UDCA
  inhibition of TGF-β1-induced reduction in MTT metabolism / loss of cell viability: prevents TGF-β1-induced loss of cell viability
Primary rat hepatocytes [1]
  inhibition of DCA-induced LDH release: ~70%
Primary rat hepatocytes [1]; 100 μM for 12 h, then 50 μM DCA for 40 h, LDH and adenylate kinase assays
  prevention of DCA-induced cytotoxicity (FIG. 4 legend): prevents DCA-induced cytotoxicity
